Consider eleven compounds from ChEMBL document CHEMBL1142495, “Novel D3 selective dopaminergics incorporating enyne units as nonaromatic catechol bioisosteres: synthesis, bioactivity, and mutagenesis studies” (J Med Chem, 2008).

Structures are written as SMILES. Some results are limits rather than exact numbers.

Assay [1] deals with T1, D(3) dopamine receptor (Homo sapiens, UniProt P35462).
Description: Intrinsic activity at human D3 receptor expressed in CHO dhfr- cells by [3H]thymidine incorporation assay
Assay [2] addresses T1, D(3) dopamine receptor. The source holds these as a separate data set.
Description: Intrinsic activity at human D3 receptor expressed in CHO dhfr- cells assessed as inhibition of forskolin-induced cAMP release
Assay [3] addresses T1, D(3) dopamine receptor. In words: biochemical.
Description: Displacement of [3H]spiperone from human wild type D3 receptor expressed in human HEK293 cells
The target of assay [4] is D(3) dopamine receptor (Homo sapiens, UniProt P35462, D110E). In words: biochemical.
D(3) dopamine receptor (Homo sapiens, UniProt P35462, D110E), sequence (P35462 as listed by the source D110E): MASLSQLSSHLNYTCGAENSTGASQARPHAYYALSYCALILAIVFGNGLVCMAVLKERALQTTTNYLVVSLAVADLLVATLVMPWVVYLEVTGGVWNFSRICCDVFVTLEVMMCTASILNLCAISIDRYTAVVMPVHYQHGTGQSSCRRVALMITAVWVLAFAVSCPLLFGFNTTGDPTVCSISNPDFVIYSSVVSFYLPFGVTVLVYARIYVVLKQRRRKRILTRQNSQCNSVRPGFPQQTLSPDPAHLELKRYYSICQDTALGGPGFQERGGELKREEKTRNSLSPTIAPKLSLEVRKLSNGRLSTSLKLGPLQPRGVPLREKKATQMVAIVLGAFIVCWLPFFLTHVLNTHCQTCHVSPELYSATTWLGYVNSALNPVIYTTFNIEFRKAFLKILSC
Description: Displacement of [3H]spiperone from human D3 D3.32E mutant receptor expressed in human HEK293 cells
In assay [5] the target is D(3) dopamine receptor (Homo sapiens, UniProt P35462, F345W). In words: biochemical.
D(3) dopamine receptor (Homo sapiens, UniProt P35462, F345W), sequence (P35462 as listed by the source F345W): as the sequence (P35462 as listed by the source D110E) above, with E110D, F345W counted along it
Description: Displacement of [3H]spiperone from human D3 F6.51W mutant receptor expressed in human HEK293 cells
Assay [6] has as its target T2, D(2) dopamine receptor (Homo sapiens, UniProt P14416). In words: Displacement of [3H]spiperone from human D2long receptor expressed in CHO cells. The class given is cell-based.
In assay [7] the target is T2, D(2) dopamine receptor. In words: Displacement of [3H]spiperone from human D2short receptor expressed in CHO cells. The class given is cell-based. (Loss of bound radioactivity is the signal in a displacement assay; it reports binding, not function.)
In the next assay the target is T3, D(4) dopamine receptor (Homo sapiens, UniProt P21917).
T3 sequence (P21917 whole entry): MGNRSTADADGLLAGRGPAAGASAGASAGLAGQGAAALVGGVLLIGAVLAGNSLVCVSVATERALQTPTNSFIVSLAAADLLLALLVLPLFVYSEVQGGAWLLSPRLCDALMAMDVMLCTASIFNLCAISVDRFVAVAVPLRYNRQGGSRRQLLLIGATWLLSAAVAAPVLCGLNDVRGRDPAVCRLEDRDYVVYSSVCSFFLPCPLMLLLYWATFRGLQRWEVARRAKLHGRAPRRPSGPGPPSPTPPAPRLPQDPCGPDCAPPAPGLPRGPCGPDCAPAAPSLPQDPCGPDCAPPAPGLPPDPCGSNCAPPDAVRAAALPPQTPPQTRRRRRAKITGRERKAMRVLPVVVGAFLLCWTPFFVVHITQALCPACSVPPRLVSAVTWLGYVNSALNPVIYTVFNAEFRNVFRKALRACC
In words: Displacement of [3H]spiperone from human D4 receptor expressed in CHO cells. Type of assay: cell-based.

The target of another assay is D(1A) dopamine receptor (Sus scrofa, UniProt P50130). In words: Displacement of [3H]SCH23390 from D1 receptor in pig striatal membrane. The class given is cell membranes, Striatum.
D(1A) dopamine receptor, sequence (P50130 whole entry): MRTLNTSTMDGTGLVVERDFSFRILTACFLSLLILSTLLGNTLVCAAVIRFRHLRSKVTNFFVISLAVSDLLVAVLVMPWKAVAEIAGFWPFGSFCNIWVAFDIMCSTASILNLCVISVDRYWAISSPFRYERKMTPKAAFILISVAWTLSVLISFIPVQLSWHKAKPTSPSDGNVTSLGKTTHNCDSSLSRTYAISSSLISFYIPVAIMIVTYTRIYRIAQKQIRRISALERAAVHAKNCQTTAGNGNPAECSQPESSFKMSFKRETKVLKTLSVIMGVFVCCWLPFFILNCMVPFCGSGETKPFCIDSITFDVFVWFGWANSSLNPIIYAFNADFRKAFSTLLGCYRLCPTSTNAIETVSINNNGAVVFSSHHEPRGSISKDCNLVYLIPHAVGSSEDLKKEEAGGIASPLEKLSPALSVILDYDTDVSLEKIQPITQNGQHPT
Assay [8] has as its target T1, D(3) dopamine receptor. In words: biochemical. This is another data set of the same source.
Description: Displacement of [3H]spiperone from human D3 receptor expressed in CHO cells
Assay [9] can be described thus: Displacement of [3H]WAY100635 from 5HT1A receptor in pig cerebral cortex homogenate.
Assay [10] can be described thus: Displacement of [3H]ketanserin from 5HT2 receptor in pig cerebral cortex homogenate.
Assay [11] in a line: Displacement of [3H]prazosin from adrenergic alpha1 receptor in pig cerebral cortex homogenate.

T1 sequence (P35462 whole entry): as the sequence (P35462 as listed by the source D110E) above, with S9G, E110D counted along it
T2 sequence (P14416 whole entry): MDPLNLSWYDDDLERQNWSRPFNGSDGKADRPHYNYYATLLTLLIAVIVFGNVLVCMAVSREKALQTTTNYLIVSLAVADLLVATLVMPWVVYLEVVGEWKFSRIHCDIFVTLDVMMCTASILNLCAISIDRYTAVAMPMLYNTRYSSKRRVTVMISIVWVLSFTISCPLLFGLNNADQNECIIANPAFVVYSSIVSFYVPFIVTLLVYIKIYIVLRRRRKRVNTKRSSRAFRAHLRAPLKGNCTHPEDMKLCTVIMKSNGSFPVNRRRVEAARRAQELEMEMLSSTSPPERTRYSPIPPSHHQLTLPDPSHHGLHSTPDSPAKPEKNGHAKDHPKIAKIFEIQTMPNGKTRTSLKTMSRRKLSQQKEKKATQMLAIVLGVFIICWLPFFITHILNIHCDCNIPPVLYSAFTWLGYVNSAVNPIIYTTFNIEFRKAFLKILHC

As to `C#CC1=CCC(N(CCC)CCC)CC1` (configuration not stated), the EC50 – broadly, the concentration needed to bring the measured effect to its halfway point – amounted to 4.4 nM on D(3) dopamine receptor [1] and 7.7 nM at D(3) dopamine receptor [2]. Besides, the inhibitory constant (Ki) (in general, a dissociation constant, usually derived from enzyme kinetics or from competition with a known ligand) on D(3) dopamine receptor [3] was 190 nM; at D(3) dopamine receptor [4], over 10000 nM; at D(3) dopamine receptor [5] it was 5700 nM.
As to `CCCNCCCCNC(=O)c1ccc(-c2ccccc2)cc1`, the Ki on D(2) dopamine receptor [6] was 21 µM; at D(2) dopamine receptor [7] it was over 100000 nM; at D(4) dopamine receptor, 6100 nM; on D(1A) dopamine receptor it was 7.3 µM; at D(3) dopamine receptor [8], 11000 nM; in [9], 9500 nM. In addition, the Ki in [10] amounted to 860 nM; in [11], 2500 nM.
Take `CCCN(CCCCNC(=O)c1ccc(-c2ccccc2)cc1)C1CC=C(C#C[Si](C)(C)C)CC1` (configuration not stated): the Ki was determined as 0.22 µM at D(2) dopamine receptor [6]; 360 nM at D(2) dopamine receptor [7]; 69 nM on D(4) dopamine receptor; 3.8 µM on D(1A) dopamine receptor; 4.4 nM on D(3) dopamine receptor [8]; 660 nM in [9]. Also, the Ki in assay [10] came out at 1400 nM; in assay [11], 2200 nM.
`C#CC1=CCC(N(CCC)CCCCn2cc(-c3ccc(-c4ccccc4)cc3)nn2)CC1` (configuration not stated): the Ki at D(2) dopamine receptor [6] turned out to be 0.61 µM; at D(2) dopamine receptor [7] it was 170 nM; on D(4) dopamine receptor, 190 nM; at D(1A) dopamine receptor, 9.5 µM; on D(3) dopamine receptor [3], 2.5 nM; at D(3) dopamine receptor [4], 1500 nM. For the same compound, the inhibition constant (Ki) came to 33 nM at D(3) dopamine receptor [5]; 1.3 nM at D(3) dopamine receptor [8]; 2500 nM in assay [9]; 2700 nM in assay [10]; 4400 nM in [11]. The EC50 was 2.6 nM at D(3) dopamine receptor [1] and 3.1 nM on D(3) dopamine receptor [2].
Regarding `CC#CC1=CCC(N(CCC)CCCCn2cc(C)nn2)CC1` (configuration not stated), the Ki was 4.1 µM on D(2) dopamine receptor [6]; 2100 nM at D(2) dopamine receptor [7]; 100 nM at D(4) dopamine receptor; over 100 µM at D(1A) dopamine receptor; 280 nM on D(3) dopamine receptor [8]; 1800 nM in assay [9]. For the same compound, the Ki in assay [10] came to 15000 nM; in [11], 8700 nM.
As to `CCCN(CCC)CCCCNC(=O)c1ccc(-c2ccccc2)cc1`, the Ki at D(2) dopamine receptor [6] stood at 9.7 µM; on D(2) dopamine receptor [7], 8800 nM; on D(4) dopamine receptor, 1400 nM; at D(1A) dopamine receptor, 6.8 µM; at D(3) dopamine receptor [8], 950 nM; in assay [9], 2800 nM. For the same compound, the Ki was determined as 790 nM in [10] and 2400 nM in assay [11].
For the compound `CCCN(CCCCNC(=O)c1ccc(-c2ccccc2)cc1)C1CC=C(C#Cc2ccccc2)CC1` (configuration not stated), the Ki at D(2) dopamine receptor [6] was determined as 5.5 µM; on D(2) dopamine receptor [7] it was 4700 nM; on D(4) dopamine receptor, 3100 nM; on D(1A) dopamine receptor, 13 µM; at D(3) dopamine receptor [8] it was 300 nM; in assay [9], 5800 nM. The Ki in [10] worked out at 8300 nM; in assay [11], 4600 nM.
On to `C#CC1=CCC(N(CCC)CCCCNC(=O)c2ccc(-c3ccccc3)cc2)CC1` (configuration not stated), for which the Ki at D(4) dopamine receptor stood at 4.3 nM; at D(1A) dopamine receptor it was 2.9 µM; in assay [9], 230 nM; in [10] it was 460 nM; in assay [11], 510 nM.
Turning to `CCCN(CCCCNC(=O)c1ccc(-c2ccccc2)cc1)C1CCCCC1`, the inhibition constant (Ki) turned out to be 4.7 µM on D(2) dopamine receptor [6]; 6300 nM on D(2) dopamine receptor [7]; 670 nM on D(4) dopamine receptor; 4.6 µM at D(1A) dopamine receptor; 140 nM on D(3) dopamine receptor [8]; 1200 nM in [9]. The inhibition constant Ki was 890 nM in [10] and 1100 nM in [11].
As for `CCCN(CCCCn1cc(-c2ccc(-c3ccccc3)cc2)nn1)C1CC=C(C#C[Si](C)(C)C)CC1` (configuration not stated), the Ki at D(2) dopamine receptor [6] amounted to 0.69 µM; on D(2) dopamine receptor [7], 670 nM; on D(4) dopamine receptor, 1800 nM; on D(1A) dopamine receptor, 5.8 µM; on D(3) dopamine receptor [8], 13 nM; in assay [9], 6900 nM. Besides, the Ki was 8300 nM in assay [10] and 1900 nM in assay [11].
As to `CCCN(CCCCn1cc(-c2ccc(-c3ccccc3)cc2)nn1)C1CC=C(C#Cc2ccccc2)CC1` (configuration not stated), the Ki on D(2) dopamine receptor [6] was 0.21 µM; on D(2) dopamine receptor [7], 180 nM; at D(4) dopamine receptor, 1100 nM; on D(1A) dopamine receptor it was 1.7 µM; on D(3) dopamine receptor [8], 150 nM; in assay [9], 5900 nM. The figures for the Ki in assay [10] and in assay [11] were 5700 nM and 900 nM, respectively.
